Laboratory results taken from paper PMC9081329, “Pharmacokinetics, Mass Balance, Excretion, and Tissue Distribution of Plasmalogen Precursor PPI-1011” (Frontiers in Cell and Developmental Biology, 2022).

Experiment: Repeat dose tissue distribution study (QWBA, LSC of blood and plasma), 15 daily doses
Type: in vivo, Sprague-Dawley rats
Method: Three male rats were administered [^14C]PPI-1011 at 100 mg/kg (100 μCi/kg) once daily for 15 days. One rat was sacrificed at each of the following time points after the administration of the day 15 dose: 24, 48, and 96 h. Terminal blood was collected by cardiac puncture directly into tubes with K2EDTA, an aliquot was stored at 4°C until LSC was performed for radioactivity, while the remaining blood was processed to plasma and stored at −20°C until LSC. Following blood collection, the carcasses were frozen in a cold bath with hexanes and dry ice for at least 8 min and then dried and stored at −70°C for at least 12 h. The carcasses were transferred to a −20°C freezer for at least 12 h before embedding.
QWBA was used to determine radioactivity concentrations in the caecum (contents and mucosa), large intestine (contents and mucosa), small intestine (contents and mucosa), stomach (contents and mucosa), brain, choroid plexus, spinal cord, bone, skin, adrenal gland, pineal body, pituitary gland, thyroid gland, liver, kidney (cortex, medulla and whole kidney), urinary bladder (contents and wall), brown fat, white fat, eye (lens, uveal tract and whole eye), epididymis, prostate gland, testis, ovary, uterus, lung, exorbital lachrymal gland, Harderian gland, pancreas, salivary gland, skeletal muscle, myocardium, cardiac blood, bone marrow, lymph node, spleen, and thymus. As well, LSC was used to determine the total radioactivity in the whole blood and plasma.
The whole-body cryosectioning technique described by ([Ullberg, 1977]) was the basis for embedding and cryosectioning the rats assigned to this study. Each frozen carcass was shaved, and then the limbs and tail were removed prior to embedding. Chilled (4°C) 3% CMC (low viscosity) was utilized to provide a firm support of reinforced ice around each rat and for a secure attachment to the microtome stage. Upon thorough freezing of the embedding medium surrounding each rat, the frozen CMC block was removed from the freezing bath and four 3/8 inch holes were drilled into the block. One cryosection quality control standard (CQCS) was prepared with a known amount of radioactivity and at least 1 ml aliquots were added to each of the four drilled holes. CQCS data were utilized to evaluate the overall performance of the QWBA assay.
Each frozen rat was sagittally trimmed (50–100 μm) at −20°C until exposure of a few target tissues employing a Leica Cryomacrocut heavy-duty microtome (Leica Microsystems Inc.,). Disposable stainless steel Feather type H45L knives (Feather Safety Razor Co., Ltd.) were utilized for trimming and sectioning each frozen rat. Several thinner sections (50 μm) were discarded prior to obtaining multiple 50 μm sections at various cryosectioning levels for QWBA analysis. Upon the collection of at least 60 target tissues in multiple cryosectioning levels, the cryosections were kept in the Cryomacrocut cryochamber for a minimum of 18 h for dehydration depending upon the number of cryosections within the cryochamber. After dehydration was complete, the cryosections were transferred to ambient temperature for processing. Mounted whole-body cryosections and a set of 15 standards were sandwiched between a standard phosphor screen and an exposure cassette. All cryosections were exposed to the phosphor screen for 4-days in a cabinet protected with lead prior to scanning using a Typhoon PhosphorImager (Cytiva). MCID™ Analysis software (InterFocus Ltd.) was utilized to generate a calibration curve of the STD nominal concentrations (nCi/g) versus PhosphorImager response (counts/μm^2 minus background) by weighted (1/x) linear regression analysis ([Potchoiba et al., 1995]; [Potchoiba et al., 1998]). The linear regression curve was then utilized to determine the concentration (nCi/g) of total radioactivity in whole-body tissues and blood. Radioactivity concentrations were expressed as μg Eq/g based on the specific activity of the compound in the final dose formulations. […]

[1] = 24 hr post 15 daily oral 100 mg/kg
[2] = 48 hr post 15 daily oral 100 mg/kg

SMILES: CC/C=C\C/C=C\C/C=C\C/C=C\C/C=C\C/C=C\CCC(=O)O[C@H](CO[14CH2]CCCCCCCCCCCCCCC)COC(=O)CCCCC1CCSS1 (stereo partly shown) [[^14C]PPI-1011]
- Mean percentage radioactivity (normalized by tissue) at 96 h relative to the 24-h timepoint (15 daily doses): 75%
- Radioactivity in urine within the urinary bladder (15 daily doses): no detection of radioactivity
- Time of highest blood concentration (15 daily doses): 24 HPD
- Time of highest levels, adrenal gland (15 daily doses): 48 HPD
- Time of highest levels, cerebrum (15 daily doses): 96 HPD
- Time of highest levels, medulla oblongata (15 daily doses): 96 HPD
- Time of highest levels, nasal turbinates (15 daily doses): 48 HPD
- Time of highest levels, spinal cord (15 daily doses): 96 HPD
- Time of highest peak concentration, bladder wall (15 daily doses): 48 HPD
- Time of highest peak concentration, brown adipose (15 daily doses): 24 HPD
- Time of highest peak concentration, cecum (15 daily doses): 24 HPD
- Time of highest peak concentration, esophagus (15 daily doses): 24 HPD
- Time of highest peak concentration, gastric mucosa (15 daily doses): 24 HPD
- Time of highest peak concentration, large intestines (15 daily doses): 24 HPD
- Time of highest peak concentration, ocular lens (15 daily doses): 96 HPD
- Time of highest peak concentration, prostate (15 daily doses): 96 HPD
- Time of highest peak concentration, seminal vesicles (15 daily doses): 24 HPD
- Time of highest peak concentration, small intestines (15 daily doses): 24 HPD
- Time of highest peak concentration, stomach (15 daily doses): 24 HPD
- Time of highest peak concentration, subcutaneous adipose (15 daily doses): 48 HPD
- Time of highest peak concentration, testis (15 daily doses): 24 HPD
- Time of highest peak concentration, uveal tract (15 daily doses): 24 HPD
- Time of highest peak concentration, visceral adipose (15 daily doses): 48 HPD
- Time of highest peak concentration, vitreous body (15 daily doses): 24 HPD
- Time of highest peak concentration, whole eye (15 daily doses): 24 HPD
- Blood:plasma concentration ratio (24 HPD, 15 daily doses): 2.31
- Blood:plasma concentration ratio (48 HPD, 15 daily doses): 2.86
- Blood:plasma concentration ratio (96 HPD, 15 daily doses): 4.23
- Radioactivity concentration, Adipose - Brown [1]: 2211 μg equivalents/g
- Radioactivity concentration, Adipose - Brown (Vessel Wall) [1]: 1423 μg equivalents/g
- Radioactivity concentration, Adipose - Subcutaneous [1]: 1316 μg equivalents/g
- Radioactivity concentration, Adipose - Visceral [1]: 1402 μg equivalents/g
- Radioactivity concentration, Adrenal Gland [1]: 1830 μg equivalents/g
- Radioactivity concentration, Bladder Wall [1]: 102 μg equivalents/g
- Radioactivity concentration, Blood - QWBA [1]: 55.0 μg equivalents/g
- Radioactivity concentration, Bone Marrow [1]: 160 μg equivalents/g
- Radioactivity concentration, Bone Surface [1]: 11.6 μg equivalents/g
- Radioactivity concentration, Cecum [1]: 300 μg equivalents/g
- Radioactivity concentration, Cerebellum [1]: 57.8 μg equivalents/g
- Radioactivity concentration, Cerebrum [1]: 45.7 μg equivalents/g
- Radioactivity concentration, Choroid Plexus [1]: 186 μg equivalents/g
- Radioactivity concentration, Colliculus [1]: 68.3 μg equivalents/g
- Radioactivity concentration, Diaphragm [1]: 204 μg equivalents/g
- Radioactivity concentration, Esophagus [1]: 161 μg equivalents/g
- Radioactivity concentration, Exorbital Lacrimal Gland [1]: 98.0 μg equivalents/g
- Radioactivity concentration, Gastric Mucosa [1]: 415 μg equivalents/g
- Radioactivity concentration, Harderian Gland [1]: 113 μg equivalents/g
- Radioactivity concentration, Intra-Orbital Lacrimal Gland [1]: 100 μg equivalents/g
- Radioactivity concentration, Kidney [1]: 304 μg equivalents/g
- Radioactivity concentration, Large Intestines [1]: 255 μg equivalents/g
- Radioactivity concentration, Liver [1]: 412 μg equivalents/g
- Radioactivity concentration, Lung [1]: 217 μg equivalents/g
- Radioactivity concentration, Lymph Node [1]: 347 μg equivalents/g
- Radioactivity concentration, Medulla Oblongata [1]: 51.0 μg equivalents/g
- Radioactivity concentration, Muscle [1]: 115 μg equivalents/g
- Radioactivity concentration, Myocardium [1]: 292 μg equivalents/g
- Radioactivity concentration, Nasal Turbinates [1]: 180 μg equivalents/g
- Radioactivity concentration, Ocular - Lens [1]: 5.82 μg equivalents/g
- Radioactivity concentration, Ocular - Uveal Tract [1]: 105 μg equivalents/g
- Radioactivity concentration, Ocular - Vitreous Body [1]: 2.55 μg equivalents/g
- Radioactivity concentration, Ocular - Whole Eye [1]: 22.7 μg equivalents/g
- Radioactivity concentration, Olfactory Bulb [1]: 47.8 μg equivalents/g
- Radioactivity concentration, Pancreas [1]: 355 μg equivalents/g
- Radioactivity concentration, Parotid Gland [1]: 296 μg equivalents/g
- Radioactivity concentration, Pineal Gland [1]: 230 μg equivalents/g
- Radioactivity concentration, Pituitary Gland [1]: 266 μg equivalents/g
- Radioactivity concentration, Prostate [1]: 74.6 μg equivalents/g
- Radioactivity concentration, Renal Cortex [1]: 323 μg equivalents/g
- Radioactivity concentration, Renal Medulla [1]: 238 μg equivalents/g
- Radioactivity concentration, Salivary Gland [1]: 308 μg equivalents/g
- Radioactivity concentration, Seminal Vesicles [1]: 63.2 μg equivalents/g
- Radioactivity concentration, Skin - Non-Pigmented [1]: 161 μg equivalents/g
- Radioactivity concentration, Small Intestines [1]: 420 μg equivalents/g
- Radioactivity concentration, Spinal Cord [1]: 46.8 μg equivalents/g
- Radioactivity concentration, Spleen [1]: 319 μg equivalents/g
- Radioactivity concentration, Stomach [1]: 133 μg equivalents/g
- Radioactivity concentration, Testis [1]: 70.3 μg equivalents/g
- Radioactivity concentration, Thalamus [1]: 45.4 μg equivalents/g
- Radioactivity concentration, Thymus [1]: 153 μg equivalents/g
- Radioactivity concentration, Thyroid [1]: 373 μg equivalents/g
- Radioactivity concentration, Whole Brain [1]: 48.8 μg equivalents/g
- Radioactivity concentration, Adipose - Brown [2]: 1917 μg equivalents/g
- Radioactivity concentration, Adipose - Brown (Vessel Wall) [2]: 1017 μg equivalents/g
- Radioactivity concentration, Adipose - Subcutaneous [2]: 1498 μg equivalents/g
- Radioactivity concentration, Adipose - Visceral [2]: 1500 μg equivalents/g
- Radioactivity concentration, Adrenal Gland [2]: 2346 μg equivalents/g
- Radioactivity concentration, Bladder Wall [2]: 108 μg equivalents/g
- Radioactivity concentration, Blood - QWBA [2]: 34.3 μg equivalents/g
- Radioactivity concentration, Bone Marrow [2]: 113 μg equivalents/g
- Radioactivity concentration, Bone Surface [2]: 7.66 μg equivalents/g
- Radioactivity concentration, Cecum [2]: 95.7 μg equivalents/g
- Radioactivity concentration, Cerebellum [2]: 54.9 μg equivalents/g
- Radioactivity concentration, Cerebrum [2]: 39.9 μg equivalents/g
- Radioactivity concentration, Choroid Plexus [2]: 131 μg equivalents/g
